Consider ten compounds from ChEMBL document CHEMBL1201862, “PubChem BioAssay data set” (2004).

Some test systems named below: COLO 205; UACC-257; NCI-H226; HL-60; ACHN; K562; NCI-H23; UACC-62; HCT-116; HT-29; HCT-15; DU-145; KM12; NCI/ADR-RES; MDA-MB-435; SF-268; IGROV-1; SK-MEL-28; HOP-62; NCI-H522.
Experiment in all cases: DTP human tumour cell line panel, 48 h

The structures appear in SMILES notation.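 Assay format: 96-well plates, 48-hour exposure. GI50: concentration for 50% inhibition of growth.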 Active and inactive are the calls of the source. No stated cut-off is given here; in the data, active = GI50 up to about 1.1 µM and inactive = higher.

Usually GI50 stands for the concentration at which growth is held to half of that of the control.

With `CC/C(N)=N\NC(=O)OC(C)(C)C`, the GI50 with COLO 205, in the assay with UACC-257, with NCI-H226, with HL-60, in the assay with ACHN and in the assay on K562 was > 100 µM (inactive) each time. Further, the GI50 was > 100 µM (inactive) in the assay with NCI-H23; > 100 µM (inactive) in the assay on UACC-62; > 100 µM (inactive) in the assay with HCT-116; > 100 µM (inactive) with HT-29; over 100 µM in the assay with HCT-15; > 100 µM (inactive) in the assay on DU-145. In addition, the GI50 in the assay with KM12, with NCI/ADR-RES, in the assay with MDA-MB-435, in the assay with SF-268, in the assay with IGROV-1 and with SK-MEL-28 was > 100 µM (inactive) throughout. For the same compound, the GI50 in the assay with HOP-62 and in the assay on NCI-H522 was > 100 µM (inactive) each time.
Regarding `O=c1oc2ccccc2c(O)c1C(C/C(CCN1CCCC1)=N/O)c1ccccc1` (stereo not given), the GI50 was > 100 µM (inactive) with COLO 205; > 100 µM (inactive) in the assay with UACC-257; > 100 µM (inactive) with NCI-H226; > 31.6 µM (inactive) in the assay with HL-60; > 100 µM (inactive) in the assay with ACHN; > 31.6 µM (inactive) in the assay on K562. Moreover, the GI50 is > 100 µM (inactive) with NCI-H23; > 100 µM (inactive) with UACC-62; > 100 µM (inactive) in the assay on HCT-116; > 100 µM (inactive) with HT-29; over 100 µM in the assay with HCT-15; > 100 µM (inactive) with DU-145. Besides, the GI50 in the assay on KM12, in the assay with NCI/ADR-RES, in the assay on MDA-MB-435, in the assay with SF-268, in the assay on IGROV-1 and with SK-MEL-28 was > 100 µM (inactive) in each case. Besides, the GI50 in the assay on HOP-62 and in the assay on NCI-H522 was > 100 µM (inactive) throughout.
For `c1ccc(/N=c2/[nH]c3ccccc3s/c2=N/c2ccccc2)cc1`, the GI50 in the assay on COLO 205, in the assay on UACC-257, with NCI-H226, with HL-60, in the assay with ACHN and with K562 was > 100 µM (inactive) throughout. For the same compound, the GI50 with NCI-H23 was > 100 µM (inactive); with UACC-62, > 100 µM (inactive); in the assay on HCT-116 it was > 100 µM (inactive); in the assay on HT-29 it was 82 µM (inactive); in the assay on HCT-15, over 100 µM; with DU-145 it was > 100 µM (inactive). Besides, the GI50 with KM12 was 73.8 µM (inactive); with NCI/ADR-RES, > 100 µM (inactive); with MDA-MB-435 it was > 100 µM (inactive); in the assay with SF-268 it was > 100 µM (inactive); in the assay with IGROV-1 it was > 100 µM (inactive); in the assay with SK-MEL-28, > 100 µM (inactive). The GI50 with HOP-62 is > 100 µM (inactive); with NCI-H522 it was 26.3 µM (inactive).
Take `COc1cc(C2c3cc4c(cc3OC(NNc3ccccc3)C2C)OCO4)cc(OC)c1OC` (stereo not given): the GI50 with COLO 205 is 1.46 µM (inactive); with UACC-257, 2.07 µM (inactive); with NCI-H226, 1.92 µM (inactive); in the assay on HL-60 it was 1.58 µM (inactive); with ACHN, 0.631 µM (active); in the assay on K562, 0.437 µM (active). Also, the GI50 in the assay with NCI-H23 was 2.83 µM (inactive); with UACC-62, 0.544 µM (active); in the assay with HCT-116 it was 1.03 µM (active); with HT-29 it was 0.986 µM (active); in the assay on HCT-15, 0.417 µM; in the assay on DU-145 it was 2.11 µM (inactive). For the same compound, the GI50 is 0.395 µM (active) with KM12; 0.597 µM (active) in the assay on NCI/ADR-RES; 0.305 µM (active) in the assay with MDA-MB-435; 1.86 µM (inactive) in the assay with SF-268; 1.26 µM (inactive) with IGROV-1; 1.57 µM (inactive) in the assay with SK-MEL-28. Besides, the GI50 with HOP-62 was 0.923 µM (active); in the assay on NCI-H522 it was 0.977 µM (active).
For `COc1ccc(C2c3cc4c(cc3OC3(OC)COC(=O)C23)OCO4)c(OC)c1` (stereo not given), the GI50 was 5.62 µM (inactive) in the assay with COLO 205; 6.24 µM (inactive) in the assay with UACC-257; 25.1 µM (inactive) with NCI-H226; 2.32 µM (inactive) in the assay with HL-60; 34.8 µM (inactive) in the assay with ACHN; 5.08 µM (inactive) in the assay on K562. Moreover, the GI50 is 29.3 µM (inactive) in the assay with NCI-H23; 5.73 µM (inactive) in the assay with UACC-62; 5.33 µM (inactive) with HCT-116; 3.4 µM (inactive) in the assay with HT-29; 5.19 µM in the assay on HCT-15; 31.9 µM (inactive) in the assay with DU-145. Also, the GI50 in the assay with KM12 was 3.43 µM (inactive); in the assay with NCI/ADR-RES, 3.23 µM (inactive); in the assay on MDA-MB-435, 1.71 µM (inactive); with SF-268 it was 14.6 µM (inactive); with IGROV-1 it was 10.5 µM (inactive); in the assay with SK-MEL-28, 18.4 µM (inactive). In addition, the GI50 was 8.39 µM (inactive) with HOP-62 and 2.43 µM (inactive) with NCI-H522.
In the case of `CCOC(=O)CC/C(=N/Nc1ccc(Cl)cc1[N+](=O)[O-])C(=O)OCC`, the GI50 with COLO 205, in the assay on UACC-257, with NCI-H226, in the assay with HL-60, in the assay on ACHN and in the assay on K562 was > 100 µM (inactive) each time. Moreover, the GI50 in the assay on NCI-H23 was > 100 µM (inactive); with UACC-62, > 100 µM (inactive); in the assay with HCT-116, > 100 µM (inactive); in the assay on HT-29, > 100 µM (inactive); in the assay with HCT-15, over 100 µM; with DU-145, > 100 µM (inactive). For the same compound, the GI50 in the assay with KM12, with NCI/ADR-RES, in the assay with MDA-MB-435, in the assay with SF-268, with IGROV-1 and in the assay on SK-MEL-28 was > 100 µM (inactive) each time. Also, the GI50 with HOP-62 and in the assay with NCI-H522 was > 100 µM (inactive) throughout.
In the case of `N=c1c2c(=S)n(-c3ccccc3)c(=S)n(-c3ccccc3)c2nc(SCCN2CCOCC2)n1-c1ccccc1`, the GI50 with COLO 205 is 1.99 µM (inactive); with UACC-257, 2.11 µM (inactive); in the assay with NCI-H226 it was 7.13 µM (inactive); in the assay on HL-60, 1.41 µM (inactive); in the assay on ACHN it was 1.87 µM (inactive); with K562 it was 1.47 µM (inactive). Moreover, the GI50 with NCI-H23 is 2.67 µM (inactive); in the assay with UACC-62 it was 1.81 µM (inactive); in the assay with HCT-116, 1.85 µM (inactive); in the assay with HT-29, 2.05 µM (inactive); in the assay with HCT-15, 1.91 µM; in the assay with DU-145 it was 1.83 µM (inactive). Besides, the GI50 with KM12 is 2.44 µM (inactive); in the assay with NCI/ADR-RES, 3.67 µM (inactive); in the assay on MDA-MB-435, 1.82 µM (inactive); in the assay on SF-268, 1.79 µM (inactive); with IGROV-1, 1.76 µM (inactive); in the assay with SK-MEL-28, 2.1 µM (inactive). For the same compound, the GI50 is 2.12 µM (inactive) in the assay with HOP-62 and 1.67 µM (inactive) with NCI-H522.
Consider `CCOP(=O)(OCC)c1c(C(=O)OC)cc(=O)[nH]c1-c1ccc(C)cc1`, for which the GI50 is 6.5 µM (inactive) in the assay with COLO 205; 15.6 µM (inactive) in the assay on UACC-257; 9.31 µM (inactive) with NCI-H226; 1.23 µM (inactive) with HL-60; 3.17 µM (inactive) in the assay on ACHN; 10.4 µM (inactive) in the assay with K562. Further, the GI50 in the assay with NCI-H23 is 16.9 µM (inactive); in the assay on UACC-62 it was 7.01 µM (inactive); in the assay on HCT-116 it was 13.8 µM (inactive); in the assay with HT-29, 14.4 µM (inactive); with HCT-15, 9.73 µM; in the assay on DU-145, 12.9 µM (inactive). In addition, the GI50 with KM12 was 16 µM (inactive); in the assay on NCI/ADR-RES it was 19.5 µM (inactive); in the assay with MDA-MB-435, 18.5 µM (inactive); in the assay on SF-268, 19.4 µM (inactive); in the assay with IGROV-1 it was 6.43 µM (inactive); in the assay on SK-MEL-28 it was 18.5 µM (inactive). Moreover, the figures for the GI50 in the assay on HOP-62 and in the assay with NCI-H522 were 18.5 µM (inactive) and 0.968 µM (active), respectively.
As to `CCN(CC)CCNc1ccc2ncn3c4ccc(OC)cc4c(=O)c1c23`, the GI50 was 1.49 µM (inactive) with COLO 205; 11.9 µM (inactive) with UACC-257; 4.31 µM (inactive) with NCI-H226; 3.49 µM (inactive) in the assay on HL-60; 1.05 µM (active) in the assay with ACHN; 2.75 µM (inactive) in the assay on K562. Besides, the GI50 with NCI-H23 is 4.79 µM (inactive); in the assay on UACC-62, 16 µM (inactive); with HCT-116, 0.592 µM (active); in the assay with HT-29 it was 1.28 µM (inactive); in the assay on HCT-15 it was 1.57 µM; with DU-145, 8.28 µM (inactive). In addition, the GI50 in the assay on KM12 was 1.78 µM (inactive); in the assay with NCI/ADR-RES it was 0.885 µM (active); with MDA-MB-435 it was 5.21 µM (inactive); in the assay on SF-268 it was 2.21 µM (inactive); with IGROV-1, 4.35 µM (inactive); with SK-MEL-28, 14.3 µM (inactive). The GI50 in the assay with HOP-62 is 5.21 µM (inactive); in the assay on NCI-H522 it was 2.32 µM (inactive).
`O=C1Nc2cc([N+](=O)[O-])ccc2C(=O)N2CCC[C@@H]12`: the GI50 in the assay with COLO 205, in the assay on UACC-257, in the assay on NCI-H226, with HL-60, in the assay on ACHN and in the assay on K562 was > 100 µM (inactive) throughout. For the same compound, the GI50 was > 100 µM (inactive) with NCI-H23; > 100 µM (inactive) in the assay on UACC-62; > 100 µM (inactive) with HCT-116; > 100 µM (inactive) with HT-29; over 100 µM with HCT-15; > 100 µM (inactive) in the assay on DU-145. Further, the GI50 in the assay on KM12, with NCI/ADR-RES, in the assay with MDA-MB-435, in the assay on SF-268, in the assay on IGROV-1 and in the assay with SK-MEL-28 was > 100 µM (inactive) in each case. The GI50 in the assay with HOP-62 and in the assay with NCI-H522 was > 100 µM (inactive) throughout.
